One data set has as its system TNF-α. Description: LPS-induced TNF-α production in human PBMC, in vitro whole cell assay (ELISA). In kind it is cell-based. To be noted: LPS stimulation overnight, TNF-α by ELISA. Here is the method: Compounds of the invention were measured for their ability to inhibit the activity of p38 in an in vitro whole cell assay using peripheral blood mononuclear cells (“PBMC” ) obtained from human blood as follows. Freshly obtained venous blood was anticoagulated with heparin, diluted with an equal volume of phosphate buffered saline (“PBS” ) and placed in a sterile tube or other container. Aliquots (30 mL) of this mixture were transferred to centrifuge tubes which were underlaid with Ficoll-Hypaque (15 mL). The prepared tubes were centrifuged at 400×g without braking for 30 min at room temperature. Approximately ½ to ⅔ of the platelet layer above the mononuclear cell band was removed with a pipet. The majority of the mononuclear cell layer was carefully removed using a pipet and these PBMCs were diluted with PBS and spun at 600×g for 15 min. The resulting PBMCs were washed with another portion of PBS and spun at 400×g for 10 min at room temperature. The recovered pellets were diluted in low endotoxin RPMI/1% FCS culture medium and gave a cell concentration of 0.5–2.0×10^6 PMBC/mL. A small volume of the suspension was removed for counting on a hemocytometer and the remaining preparation was centrifuged at 200×g for 15 min at room temperature. The recovered pelleted PMBC were resuspended in RPMI/1% FCS to a concentration of 1.67×10^6/mL. […]
For orientation: In an ELISA, binding on a coated surface is turned into a signal by an enzyme label.

In the next data set the test system is Mouse TNF-α. Description: LPS induced TNF-α production, in vivo rodent assay (oral dosing, serum ELISA). The following applies: LPS 1 mg/kg i.p. 30 min after dosing, serum 1 h later; for inhibition at 10 mg/kg: oral 10 mg/kg; for inhibition at 25 mg/kg: oral 25 mg/kg. Here is the method:
Mice (BALB/cJ females, Jackson Laboratories) or rats (Lewis males, Charles River) were fasted for 30 min prior to oral dosing with 5–10 mL/kg of test compound at 5–50 mg/kg. Thirty minutes after dosing, the animals were injected intraperitoneally with LPS at 1 mg/kg and returned to their cages for 1 h. Animals were anesthetized by CO2, exsanguinated by cardiac puncture and whole blood collected (0.1–0.7 mL). The blood was allowed to clot and serum was transferred to a centrifuge tube. This sample was centrifuged, serum was collected, aliquoted and frozen at −80 C. Samples were tested by commercial ELISAs for TNF-α (Endogen for mouse TNF-α and Biosource for rat TNF-α), resulting in data as shown in Table A.

A word on the IC50: it is the midpoint of a concentration-inhibition curve. High values mean weaker potency, low ones greater potency. As usually defined, the inhibition is how much of the control response was suppressed. A low value points to a response near the control. By melting point is commonly meant the temperature, or range, at which the solid turns liquid. `CCN1CCC/C1=C\c1nc(-c2ccc(F)cc2)c(-c2ccncc2)n1CCCc1ccccc1` [Compound 2, 4-[4-(4-fluorophenyl)-2-[(E)-(1-ethyl-2-pyrrolidinylidene)methyl]-1-(3-phenylpropyl)-1H-imidazol-5-yl]-pyridine] yielded a melting point of 126.6 to 127.6 °C. Further, half-maximal inhibition in the data set with TNF-α (IC50) was put at 17 nM. In the data set with Mouse TNF-α, this molecule returned an inhibition at 10 mg/kg of 89% and an inhibition at 25 mg/kg of 98%.

`CN1CCC/C1=C\c1nc(-c2ccc(F)cc2)c(-c2ccncc2)n1CCCc1ccccc1` [Compound 1, 4-[4-(4-fluorophenyl)-2-[(E)-(1-methyl-2-pyrrolidinylidene)methyl]-1-(3-phenylpropyl)-1H-imidazol-5-yl]-pyridine] displayed a melting point of 171 to 172 °C. In the data set with TNF-α, the IC50 came to 15 nM. In the data set with Mouse TNF-α, this molecule showed an inhibition at 10 mg/kg of 77% and an inhibition at 25 mg/kg of 99%.

The record behind these values is patent publication US7041686B2, “Substituted imidazoles useful in the treatment of inflammatory diseases” (priority 2000, dated 2006).
